Source: patent publication EP0119428A2, “Biscarboxamides for treating diseases, and process for their preparation” (BAYER AG, priority 1983, dated 1984)

System: spontan hypertensiven Ratte
Assay: Blood pressure lowering in the spontaneously hypertensive rat after oral dosing
Type: in vivo
Conditions: lowest dose that still lowers blood pressure by at least 15 mm Hg, read-out: niederste noch wirksame, orale Dosis
Text: Die in der folgenden Tabelle angeführten Verbindungen senken an der spontan hypertensiven Ratte den Blutdruck um mindestens 15 mm Hg. Angegeben ist die niederste noch wirksame, orale Dosis.

SMILES | minimal effective dose
CC(NC(=O)c1ccccc1C(=O)Nc1ccccc1)C(C)(C)C (stereo not drawn) [Beispiel 12, N-Phenyl-N'-(1,2,2-trimethylpropyl)-phtalamid] | 10 mg/kg
CCOc1ccccc1NC(=O)c1ccccc1C(=O)NC(C)C(C)(C)C (stereo not drawn) [Beispiel 13, N-(2-Ethoxyphenyl)-N'-(1,2,2-trimethylpropyl)-phtalamid] | 10 mg/kg
CC(NC(=O)c1ccccc1C(=O)Nc1cccnc1)C(C)(C)C (stereo not drawn) [Beispiel 26, N-(3-Pyridyl)-N'-(1,2,2-trimethylpropyl)-phtalamid] | 3 mg/kg
